Test results published in US5420289A, “Substituted indole-, indene-, pyranoindole- and tetrahydrocarbazole-alkanoic acid derivatives as inhibitors of PLA2 and lipoxygenase” (American Home Products Corporation, priority 1993, dated 1995).
Like-named read-outs stand apart in the source and are kept apart here.

How the values were obtained:
[1] = test system: synthesis of LTB4 by rat glycogen-elicited polymorphonuclear leukocytes (PMN); test: inhibition of LTB4 synthesis by rat glycogen-elicited PMN (Example 72); assay type: cell-based, rat (female Wistar); conditions: Leukocyte; for inhibition at 10000 µM: at 10 mM, negative number denotes potentiation; for inhibition at 500 µM: at 0.5 mM
Description: This is especially true with respect to 5,12-diHETE, which is also denoted as LTB4 lsee Ford-Hitchinson, J. Roy. Soc. Med., 74, 831 (1981)]. Compounds which inhibit the PLA2 -mediated release of arachidonic acid thereby effectively prevent the oxidation of arachidonic acid to the various leukotriene products via the lipoxygenase cascade. Accordingly, the specificity of action of PLA2 inhibitors can be determined by the activity of test compounds in this assay, which measures the ability of compounds to inhibit the synthesis of LTB4 by rat glycogen-elicited polymorphonuclear leukocytes (PMN) in the presence of exogenous substrate.
The assay is carded out as follows:
(§1) Rat polymorphonuclear leukocytes (PMNs) are obtained from female Wistar rats (150-200 g) which receive an injection of 6% glycogen (10 ml i.p.). Rats are sacrificed 18-24 hours post injection by CO2 asphyxiation and the elicited cells are harvested by peritoneal lavage using physiological saline (0.9% NaC1). The exudate is centrifuged at 400 ×g for 10 minutes. The supernatant fluid is discarded and the cell pellet is resuspended to a concentration of 2.0×10^7 cells/mL in HBSS containing Ca^++ and Mg^++ and 10 mM L-cysteine.
(§2) To 1 mL aliquots of cell suspension, test drugs or vehicle are added, then preincubated at 37° C. for 10 minutes. A23187 (1 mM), [^3 H]-AA (3.0 mCi/mL) and unlabeled AA (1 mM) are then added and the samples are further incubated for 10 minutes. The reaction is terminated by centrifugation and pelleting cells. Supernatants are then analyzed by HPLC analysis on a 15 cm×4.6 mm ID supelcosil LC-18 (Supelco)(3M) column, using a two solvent system at a flow rate of 1.4 mL total flow as follows:
Gradient: (system is equilibrated with Solvent A)
Percent solvent changes are accomplished in a linear fashion.
Injections: […] of each supernatant is injected directly onto column and ^3 H arachidonic acid metabolites are monitored using an on-line radioactivity detector (Ramona, IN/U S, Fairfield, NJ).
Standards: 10^4 -2.0×10^4 dpm of eicosanoids of interest are injected in […] EtOH cocktail.
Co-chromatography with standard [^3 H] leukotriene B4 (LTB4) in medium of stimulated PMN exposed to drug is compared to that found in medium of stimulated cells exposed to no drug, generating percent inhibition.
Results are expressed as percent inhibition at a given compound dose or as an IC50 value.

[2] = test system: cyclooxygenase (PGE2 synthesis) in rat polymorphonuclear leukocytes (PMN); test: inhibition of PGE2 synthesis (cyclooxygenase) by rat glycogen-elicited PMN (Example 73); assay type: cell-based, rat (female Wistar); conditions: Leukocyte; for inhibition at 10000 µM: at 10 mM
Procedure: as §1, §2
In this assay, the procedure of Example 72 is carried out as described. However, in order to determine cyclooxygenase activity, the samples are cochromatographed with authentic reference [^3 H]-PGE2.
The results be calculated as in Example 72 and presented below: […]

[3] = target: T1, human synovial fluid PLA2 (Homo sapiens, UniProt P14555); test: in vitro isolated phospholipase A2 assay, human synovial fluid PLA2 (Example 74); assay type: biochemical; set-up: inhibition / % Inhibition, HSF (human synovial fluid): dose or concentration left out as unconfirmed; conditions: for IC50: Table III, read-out: IC50 HSF (human synovial fluid); for inhibition: read-out: % Inhibition, HSF (human synovial fluid)
T1 sequence (P14555 21-144): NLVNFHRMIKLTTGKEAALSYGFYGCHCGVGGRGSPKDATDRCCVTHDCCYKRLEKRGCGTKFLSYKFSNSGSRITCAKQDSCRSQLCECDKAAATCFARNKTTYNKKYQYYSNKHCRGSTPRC
Procedure: The compounds of the invention are tested in an in vitro isolated phospholipase A2 assay to determine the ability of the test compounds to inhibit the release of arachidonic acid from an arachidonic acid-containing substrate by the action of phospholipase A2 enzyme from human and non-human sources.
This assay is carried out as follows:
Into a 15 mL polypropylene tube are added the following:
^6 Two human PLA2 enzymes are used:
b) Purified human synovial fluid.
Incubate the 100mL reaction mixture for 10 minutes at 37° C. in a shaking water bath. The reaction is terminated by the addition of 2 mL tetrahydrofuran, followed by vortexlag. NH2 columns (100 mg/mL--Analytichem International) are conditioned with 0.5 mL tetrahydrofuran followed by 0.5 mL tetrahydrofuran/water (2 mL:0.1 mL, v/v).
The sample is loaded onto the columns and slowly drawn through them. The hydrolyzed arachidonic acid retained in the columns is eluted therefrom with 1 mL tetrahydrofuran/glacial acetic acid (2%). The arachidonic acid is transferred to scintillation vials and quantitated by b-counting analysis. A "total counts" sample is prepared by pipetting […] ^3 H-arachidonate E. coli directly into a scintillation vial to which is added 1 mL tetrahydrofuran. 10 mL aquasol (scintillation cocktail) is added to all samples. [formula]

[4] = * (negative) denotes a potentiation, read-out: % Inhibition (PGE2 synthesis)

| IC50 [3] | inhibition [3] | Structure (SMILES) | inhibition at 10000 µM [1] | inhibition at 10000 µM [2, 4] | inhibition at 500 µM [1] | inhibition at 10000 µM ([2]; read-out: % Inhibition (PGE2 synthesis), symbol only) | inhibition at 500 µM ([2]; at 0.5 mM, * (negative) denotes a potentiation) |
| --- | --- | --- | --- | --- | --- | --- | --- |
|  |  | COC(=O)Cc1c(C)n(C(=O)c2ccc(Cl)cc2)c2ccc(OCc3ccc4ccccc4n3)cc12 [Example 17A, 1-(4-Chlorobenzoyl)-2-methyl-5-(2-quinolinylmethoxy)-1H-indole-3-acetic acid methyl esterone tenth hydrate] | 96% | 50% |  |  |  |
|  |  | COC(=O)Cc1c(C)n(Cc2ccc(Cl)cc2)c2ccc(OCc3ccc4ccccc4n3)cc12 [Example 16C, 1-[(4-Chlorophenyl)methyl]-2-methyl-5-(2-quinolinylmethoxy)-1H-indole-3-acetic acid methyl ester] |  |  | 88% | < 0% |  |
| 15.5 µM | 53% | CCCCCn1c(C)c(CC(=O)O)c2cc(OCc3ccc4ccccc4n3)ccc21 [Example 29, 2-Methyl-1-pentyl-5-(2-quinolinylmethoxy)-1H-indole-3-acetic acid hemihydrate] | 88% | -123% |  |  |  |
| 14.9 µM | 58% | Cc1c(CC(=O)O)c2cc(OCc3ccc4ccccc4n3)ccc2n1C(=O)c1ccc(Cl)cc1 [Example 17, 1-(4-Chlorobenzoyl)-2-methyl-5-(2-quinolinylmethoxy)-1H-indole-3-acetic acid three quarters hydrate] |  |  | 46% |  | 60% |
| 16.4 µM | 46% | CCCCCCn1c(C)c(CC(=O)O)c2cc(OCc3ccc4ccccc4n3)ccc21 [Example 30, 1-Hexyl-2-methyl-5-(2-quinolinylmethoxy)-1H-indole-3-acetic acid three quarters hydrate] | 90% | -130% |  |  |  |
|  | 56% | Cc1c(CC(=O)O)c2cc(OCc3ccc4ccccc4n3)ccc2n1Cc1ccc(F)cc1 [Example 24, 1-[(4-Fluorophenyl)methyl]-2-methyl-5-(2-quinolinylmethoxy)-1H-indole-3-acetic acid hemihydrate] | 97% | -126% |  |  |  |
| 2.6 µM | 92% | Cc1c(CC(=O)O)c2cc(OCc3ccc4ccccc4n3)ccc2n1Cc1ccccc1 [Example 26, 1-[(Phenyl)methyl-2-methyl]-5-(2-quinolinylmethoxy)-1H-indole-3-acetic acid tenth hydrate] | 85% | -125% |  |  |  |
|  |  | CC(C(=O)O)c1ccc2c3cc(OCc4ccc5ccccc5n4)ccc3n(Cc3ccc4ccccc4n3)c2c1 (stereo not shown) [Example 21, a-Methyl-6-(2-quinolinylmethoxy)-9-(2-quinolinylmethyl)-9H-carbazole-2-acetic acid] | 92% | -94% |  |  |  |
|  |  | CC1=C(CC(=O)O)c2cc(F)ccc2/C1=C\c1ccc([S+](C)[O-])cc1 (stereo not shown) [sulindac, reference compound] | -10% | 23% |  |  |  |
|  |  | CCc1cc(OCc2ccc3ccccc3n2)cc2c3c([nH]c12)C(CC)(CC(=O)O)OCC3 (stereo not shown) [Example 8, 1,8-Diethyl-1,3,4,9-tetrahydro-6-(2-quinolinylmethoxy)pyrano[3.4-b]indole-1-acetic acid] | 91% | 47% |  |  |  |
|  | 11% | Cc1c(CC(=O)O)c2cc(OCc3ccc4ccccc4n3)ccc2n1Cc1ccc(Br)cc1 [Example 25, 1-[(4-Bromophenyl)methyl]-2-methyl-5-(2-quinolinylmethoxy)-1H-indole-3-acetic acid hemihydrate] | 93% | -67% |  |  |  |
|  |  | CC(C(=O)O)c1ccc2c(c1)[nH]c1ccc(Cl)cc12 (stereo not shown) [carprofen, reference compound] | -10% | 83% |  |  |  |
